Active and inactive are the calls of the source. No cut-off for these calls is given here.
Key:
Mus musculus [1] = experiment: Neurotoxicity in Carworth farms No.1 albino mouse assessed as neurological impairment at 300 mg/kg, ip measured after 0.5 hrs; type: toxicity, organism-based; parameters: dose 300 mg/kg, route intraperitoneal; details: in vivo
Mus musculus [2] = experiment: Neurotoxicity in Carworth farms No.1 albino mouse assessed as neurological impairment at 30 mg/kg, ip measured after 0.5 hrs; type: toxicity, organism-based; parameters: dose 30 mg/kg, route intraperitoneal; details: in vivo
Mus musculus [3] = experiment: Neurotoxicity in Carworth farms No.1 albino mouse assessed as neurological impairment at 30 mg/kg, ip measured after 4 hrs; type: toxicity, organism-based; parameters: dose 30 mg/kg, route intraperitoneal; details: in vivo
Mus musculus [4] = experiment: Neurotoxicity in Carworth farms No.1 albino mouse assessed as neurological impairment at 100 mg/kg, ip measured after 0.5 hrs; type: toxicity, organism-based; parameters: dose 100 mg/kg, route intraperitoneal; details: in vivo
Mus musculus [5] = experiment: Neurotoxicity in Carworth farms No.1 albino mouse assessed as neurological impairment at 100 mg/kg, ip measured after 4 hrs; type: toxicity, organism-based; parameters: dose 100 mg/kg, route intraperitoneal; details: in vivo
Mus musculus [6] = experiment: Neurotoxicity in Carworth farms No.1 albino mouse assessed as neurological impairment at 300 mg/kg, ip measured after 4 hrs; type: toxicity, organism-based; parameters: dose 300 mg/kg, route intraperitoneal; details: in vivo
Mus musculus [7] = experiment: Anticonvulsant activity in Carworth farms No.1 albino mouse assessed as protection against maximum electroshock at 100 mg/kg, ip measured after 4 hrs; type: functional, organism-based; parameters: dose 100 mg/kg
Mus musculus [8] = experiment: Anticonvulsant activity in Carworth farms No.1 albino mouse assessed as protection against subcutaneous metrazole-induced seizures at 300 mg/kg, ip measured after 0.5 hrs; type: functional, organism-based; parameters: dose 300 mg/kg
Mus musculus [9] = experiment: Anticonvulsant activity in Carworth farms No.1 albino mouse assessed as protection against 6 Hz electric current-induced seizure at 100 mg/kg, ip measured after 4 hrs; type: functional, organism-based; parameters: dose 100 mg/kg
Mus musculus [10] = experiment: Anticonvulsant activity in Carworth farms No.1 albino mouse assessed as protection against subcutaneous metrazole-induced seizures at 100 mg/kg, ip measured after 0.5 hrs; type: functional, organism-based; parameters: dose 100 mg/kg
Mus musculus [11] = experiment: Anticonvulsant activity in Carworth farms No.1 albino mouse assessed as protection against subcutaneous metrazole-induced seizures at 30 mg/kg, ip measured after 0.5 hrs; type: functional, organism-based; parameters: dose 30 mg/kg
Mus musculus [12] = experiment: Anticonvulsant activity in Carworth farms No.1 albino mouse assessed as protection against 6 Hz electric current-induced seizure at 100 mg/kg, ip measured after 2 hrs; type: functional, organism-based; parameters: dose 100 mg/kg
Mus musculus [13] = experiment: Anticonvulsant activity in Carworth farms No.1 albino mouse assessed as protection against maximum electroshock at 300 mg/kg, ip measured after 0.5 hrs; type: functional, organism-based; parameters: dose 300 mg/kg
Mus musculus [14] = experiment: Anticonvulsant activity in Carworth farms No.1 albino mouse assessed as protection against 6 Hz electric current-induced seizure at 100 mg/kg, ip measured after 0.5 hrs; type: functional, organism-based; parameters: dose 100 mg/kg
Mus musculus [15] = experiment: Anticonvulsant activity in Carworth farms No.1 albino mouse assessed as protection against maximum electroshock at 300 mg/kg, ip measured after 4 hrs; type: functional, organism-based; parameters: dose 300 mg/kg
Mus musculus [16] = experiment: Neurotoxicity in Carworth farms No.1 albino mouse assessed as neurological impairment at 100 mg/kg, ip measured after 0.25 hrs; type: toxicity, organism-based; parameters: dose 100 mg/kg, route intraperitoneal; details: in vivo
Mus musculus [17] = experiment: Anticonvulsant activity in Carworth farms No.1 albino mouse assessed as protection against subcutaneous metrazole-induced seizures at 30 mg/kg, ip measured after 4 hrs; type: functional, organism-based; parameters: dose 30 mg/kg
Mus musculus [18] = experiment: Anticonvulsant activity in Carworth farms No.1 albino mouse assessed as protection against maximum electroshock at 100 mg/kg, ip measured after 0.5 hrs; type: functional, organism-based; parameters: dose 100 mg/kg
Mus musculus [19] = experiment: Anticonvulsant activity in Carworth farms No.1 albino mouse assessed as protection against maximum electroshock at 30 mg/kg, ip measured after 0.5 hrs; type: functional, organism-based; parameters: dose 30 mg/kg
Mus musculus [20] = experiment: Anticonvulsant activity in Carworth farms No.1 albino mouse assessed as protection against 6 Hz electric current-induced seizure at 100 mg/kg, ip measured after 0.25 hrs; type: functional, organism-based; parameters: dose 100 mg/kg
Mus musculus [21] = experiment: Anticonvulsant activity in Carworth farms No.1 albino mouse assessed as protection against subcutaneous metrazole-induced seizures at 300 mg/kg, ip measured after 4 hrs; type: functional, organism-based; parameters: dose 300 mg/kg
Mus musculus [22] = experiment: Neurotoxicity in Carworth farms No.1 albino mouse assessed as neurological impairment at 100 mg/kg, ip measured after 2 hr; type: toxicity, organism-based; parameters: dose 100 mg/kg, route intraperitoneal; details: in vivo
Mus musculus [23] = experiment: Anticonvulsant activity in Carworth farms No.1 albino mouse assessed as protection against subcutaneous metrazole-induced seizures at 100 mg/kg, ip measured after 4 hrs; type: functional, organism-based; parameters: dose 100 mg/kg
Mus musculus [24] = experiment: Anticonvulsant activity in Carworth farms No.1 albino mouse assessed as protection against maximum electroshock at 30 mg/kg, ip measured after 4 hrs; type: functional, organism-based; parameters: dose 30 mg/kg
Mus musculus [25] = experiment: Anticonvulsant activity in Carworth farms No.1 albino mouse assessed as protection against 6 Hz electric current-induced seizure at 100 mg/kg, ip measured after 1 hrs; type: functional, organism-based; parameters: dose 100 mg/kg
Mus musculus [26] = experiment: Neurotoxicity in Carworth farms No.1 albino mouse assessed as neurological impairment at 100 mg/kg, ip measured after 1 hr; type: toxicity, organism-based; parameters: dose 100 mg/kg, route intraperitoneal; details: in vivo

SMILES	Activity (Mus musculus [1])	Activity (Mus musculus [2])	Activity (Mus musculus [3])	Activity (Mus musculus [4])	Activity (Mus musculus [5])	Activity (Mus musculus [6])	Activity (Mus musculus [7])	Activity (Mus musculus [8])	Activity (Mus musculus [9])	Activity (Mus musculus [10])	Activity (Mus musculus [11])	Activity (Mus musculus [13])	Activity (Mus musculus [15])	Activity (Mus musculus [16])	Activity (Mus musculus [17])	Activity (Mus musculus [18])	Activity (Mus musculus [19])	Activity (Mus musculus [21])	Activity (Mus musculus [23])	Activity (Mus musculus [24])	also measured
O=C1[C@H](c2ccccc2)N2CCCC[C@H]2C(=O)N1CCc1ccccc1 [listing 1 of 2 here]	Non-toxic	Non-toxic	Non-toxic	Non-toxic	Non-toxic	Non-toxic	–	–	–	–	–	–	–	–	–	–	–	–	–	–	–
O=C1CN2CCCC[C@@H]2C(=O)N1	Non-toxic	Non-toxic	Non-toxic	Non-toxic	Non-toxic	Non-toxic	inactive	inactive	inactive	inactive	inactive	inactive	inactive	Non-toxic	inactive	inactive	inactive	inactive	inactive	inactive	Activity (Mus musculus [12]): inactive; Activity (Mus musculus [14]): Active; Activity (Mus musculus [20]): inactive; Activity (Mus musculus [22]): Non-toxic; Activity (Mus musculus [25]): Active; Activity (Mus musculus [26]): Non-toxic
Cl.O=C1[C@H]2CCCCN2[C@H](c2ccccc2)C(=O)N1Cc1ccccc1	Toxic	Non-toxic	Non-toxic	Non-toxic	Non-toxic	Non-toxic	inactive	inactive	–	inactive	inactive	Active	Active	–	inactive	inactive	inactive	inactive	inactive	inactive	–
O=C1CN2CCCC[C@H]2C(=O)N1	Non-toxic	Non-toxic	Non-toxic	Non-toxic	Non-toxic	Non-toxic	inactive	inactive	inactive	inactive	inactive	inactive	inactive	Non-toxic	inactive	inactive	inactive	inactive	inactive	inactive	Activity (Mus musculus [12]): inactive; Activity (Mus musculus [14]): inactive; Activity (Mus musculus [20]): Active; Activity (Mus musculus [22]): Non-toxic; Activity (Mus musculus [25]): Active; Activity (Mus musculus [26]): Non-toxic
O=C1[C@H]2CCCCN2[C@H](c2ccccc2)C(=O)N1CCc1ccccc1 [listing 1 of 2 here]	Non-toxic	Non-toxic	Non-toxic	Non-toxic	Non-toxic	Non-toxic	–	–	–	–	–	–	–	Non-toxic	–	–	–	–	–	–	Activity (Mus musculus [22]): Non-toxic; Activity (Mus musculus [26]): Non-toxic
O=C1[C@H]2CCCCN2[C@H](c2ccccc2)C(=O)N1CCc1ccccc1 [listing 2 of 2 here]	–	–	–	–	–	–	inactive	inactive	inactive	inactive	inactive	inactive	inactive	–	inactive	inactive	inactive	inactive	inactive	inactive	–
O=C1NC(=O)[C@@H](c2ccccc2)N2CCCC[C@@H]12	Non-toxic	Non-toxic	Non-toxic	Non-toxic	Non-toxic	Non-toxic	inactive	inactive	inactive	inactive	inactive	inactive	inactive	Non-toxic	inactive	inactive	inactive	inactive	inactive	inactive	Activity (Mus musculus [12]): inactive; Activity (Mus musculus [14]): inactive; Activity (Mus musculus [20]): inactive; Activity (Mus musculus [22]): Non-toxic; Activity (Mus musculus [25]): inactive; Activity (Mus musculus [26]): Non-toxic
Cl.O=C1[C@H](c2ccccc2)N2CCCC[C@H]2C(=O)N1CCc1ccccc1	Non-toxic	Non-toxic	Non-toxic	Non-toxic	Non-toxic	Non-toxic	–	–	–	–	–	–	–	Non-toxic	–	–	–	–	–	–	Activity (Mus musculus [22]): Non-toxic; Activity (Mus musculus [26]): Non-toxic
O=C1[C@H](c2ccccc2)N2CCCC[C@H]2C(=O)N1CCc1ccccc1 [listing 2 of 2 here]	–	–	–	–	–	–	inactive	inactive	inactive	inactive	inactive	inactive	inactive	–	inactive	inactive	inactive	inactive	inactive	inactive	Activity (Mus musculus [12]): inactive; Activity (Mus musculus [14]): Active; Activity (Mus musculus [20]): Active; Activity (Mus musculus [25]): inactive

— ChEMBL document CHEMBL1944578, “Synthesis and anticonvulsant activity of novel 2,6-diketopiperazine derivatives. Part 2: Perhydropyrido[1,2-a]pyrazines” (Eur J Med Chem, 2012)
